Where two headings read alike, the source gives them in different places.
Legend:
Assay in all cases: Viability assay (96 hours), Alamar Blue
Type in all cases: cell-based
HL-60 = conditions: for Reduction of viability (compared to vehicle controls): serial 1:3 dilution; for EC50: Homo sapiens, read-out: EC50 (viability)
Protocol: (§1) AML cell lines were maintained in RPMI 10% FBS medium at 37° C. in a humidified incubator with controlled 5% CO2 atmosphere. Cell freezing and thawing was performed following recommendation from ATCC. Genetic profiling of the cell lines used is available in table 2. Cells were seeded at the optimal density (to guarantee linear growth during the treatment), as previously determined (4000 cells/well, except 16000 cells/well in the case of KASUMI-1 cells), in 96-well plates with 50 μL of medium. Three wells were reserved for each experimental condition; medium-only and vehicle-treated controls were also added for background correction and normalization respectively. […] Alamar Blue® is a cell viability indicator that uses the natural reducing power of living cells to convert resazurin to the fluorescent molecule, resorufin^43.

KASUMI-1 = conditions: for EC50: Homo sapiens, read-out: EC50 (viability); for Reduction of viability (compared to vehicle controls): serial 1:3 dilution
Protocol: as §1

MOLM-13 = conditions: for EC50: Homo sapiens, read-out: EC50 (viability); for Reduction of viability (compared to vehicle controls): serial 1:3 dilution
Protocol: as §1

MV(4;11) = conditions: for EC50: Homo sapiens, read-out: EC50 (viability); for Reduction of viability (compared to vehicle controls): serial 1:3 dilution
Protocol: as §1

OCI-AML2 = conditions: for EC50: Homo sapiens, read-out: EC50 (viability); for Reduction of viability (compared to vehicle controls): serial 1:3 dilution
Protocol: as §1

OCI-AML3 = conditions: for EC50: Homo sapiens, read-out: EC50 (viability); for Reduction of viability (compared to vehicle controls): serial 1:3 dilution
Protocol: as §1

THP-1 = conditions: for EC50: Homo sapiens, read-out: EC50 (viability); for Reduction of viability (compared to vehicle controls): serial 1:3 dilution
Protocol: as §1

[1] = KASUMI-1, 96 hours, single agent
[2] = MOLM-13, 96 hours, single agent
[3] = MV4-11, MV(4;11), 96 hours, single agent
[4] = OCI-AML2, 96 hours, single agent
[5] = OCI-AML-3, OCI-AML3, 96 hours, single agent

EC50 (HL-60; HL-60, 96 hours, single agent) | EC50 (MOLM-13; [2]) | EC50 (OCI-AML2; [4]) | EC50 (OCI-AML3; [5]) | EC50 (THP-1; THP-1, 96 hours, single agent) | Compound | Reduction of viability (compared to vehicle controls) (HL-60; HL-60, 96 hours) | EC50 (KASUMI-1; [1]) | Reduction of viability (compared to vehicle controls) (KASUMI-1; KASUMI-1, 96 hours) | Reduction of viability (compared to vehicle controls) (MOLM-13; MOLM-13, 96 hours) | EC50 (MV(4;11); [3]) | Reduction of viability (compared to vehicle controls) (MV(4;11); MV(4;11), 96 hours) | Reduction of viability (compared to vehicle controls) (OCI-AML2; OCI-AML2, 96 hours) | Reduction of viability (compared to vehicle controls) (OCI-AML3; OCI-AML3, 96 hours) | Reduction of viability (compared to vehicle controls) (THP-1; THP-1, 96 hours) | other results
113 nM | 25 nM | 14 nM | – | – | CN(C)CC[C@H](CSc1ccccc1)Nc1ccc(S(=O)(=O)NC(=O)c2ccc(N3CCN(Cc4ccccc4-c4ccc(Cl)cc4)CC3)cc2)cc1[N+](=O)[O-] [ABT737, 4-[4-[[2-(4-chlorophenyl)phenyl]methyl]piperazin-1-yl]-N-[4-[[(2R)-4-(dimethylamino)-1-phenylsulfanylbutan-2-yl]amino]-3-nitrophenyl]sulfonylbenzamide] | greater than 20% | 124 nM | greater than 20% | greater than 20% | 6.3 nM | greater than 20% | greater than 20% | – | – | –
43.5 nM | 78.5 nM | 26.5 nM | 145 nM | 252 nM | Nc1ccn([C@@H]2O[C@H](CO)[C@@H](O)[C@@H]2O)c(=O)n1 [ARA-C, arabinofuranosyl cytidine] | greater than 20% | 28.7 nM | greater than 20% | greater than 20% | 198 nM | greater than 20% | greater than 20% | greater than 20% | greater than 20% | –
2.7 nM | 4.8 nM | 5.9 nM | 0.8 nM | 1.7 nM | CC1=C(/C=C/C(C)=C/C=C/C(C)=C/C(=O)O)C(C)(C)CCC1 [ATRA, all-trans retinoic acid] | greater than 20% | – | – | greater than 20% | 2.8 nM | greater than 20% | greater than 20% | greater than 20% | greater than 20% | –
1810 nM | 323 nM | 1850 nM | 889 nM | 2880 nM | Nc1ncn([C@@H]2O[C@H](CO)[C@@H](O)[C@H]2O)c(=O)n1 [Azacitidine] | greater than 20% | 2280 nM | greater than 20% | greater than 20% | 1110 nM | greater than 20% | greater than 20% | greater than 20% | greater than 20% | –
– | – | – | – | – | Nc1ncn([C@H]2C[C@H](O)[C@@H](CO)O2)c(=O)n1 [Decitabine, 5-aza-2′-deoxycytidine] | greater than 20% | – | greater than 20% | greater than 20% | – | greater than 20% | greater than 20% | greater than 20% | greater than 20% | EC50 (HL-60; HL-60, 96 h): 42.1 nM; EC50 (KASUMI-1; Kasumi 1, 96 h): 24 nM; EC50 (MOLM-13; MOLM-13, 96 h): 12.6 nM; EC50 (MV(4;11); MV4-11, 96 h): 79.5 nM; EC50 (OCI-AML2; OCI-AML2, 96 h): 36 nM; EC50 (OCI-AML3; OCI-AML-3, 96 h): 100 nM; EC50 (THP-1; THP-1, 96 h): 95 nM
– | 108 nM | – | – | – | CC(C)N(CCCNC(=O)Nc1ccc(C(C)(C)C)cc1)C[C@H]1O[C@@H](n2ccc3c(N)ncnc32)[C@H](O)[C@@H]1O [EPZ004777, 7-[5-Deoxy-5-[[3-[[[[4-(1,1-dimethylethyl)phenyl]amino]carbonyl]amino]propyl](1-methylethyl)amino]-β-D-ribofuranosyl]-7H-pyrrolo[2,3-d]pyrimidin-4-amine] | – | – | – | greater than 20% | 118 nM | greater than 20% | – | – | – | –
– | 44.7 nM | – | – | – | CC(C)N(C[C@H]1O[C@@H](n2cnc3c(N)ncnc32)[C@H](O)[C@@H]1O)[C@H]1C[C@@H](CCc2nc3cc(C(C)(C)C)ccc3[nH]2)C1 [EPZ5676, Pinometostat] | – | – | – | greater than 20% | 16 nM | greater than 20% | – | – | – | –
42 nM | 52 nM | 106 nM | 55.2 nM | 230 nM | Nc1ccccc1NC(=O)c1ccc(CNC(=O)OCc2cccnc2)cc1 [Entinostat] | greater than 20% | 168 nM | greater than 20% | greater than 20% | 98.5 nM | greater than 20% | greater than 20% | greater than 20% | greater than 20% | –
– | 128 nM | 446 nM | 659 nM | 324 nM | COc1ccc(C2=N[C@@H](c3ccc(Cl)cc3)[C@@H](c3ccc(Cl)cc3)N2C(=O)N2CCNC(=O)C2)c(OC(C)C)c1 [Nutlin3A, 4-[[(4S,5R)-4,5-bis(4-chlorophenyl)-4,5-dihydro-2-[4-methoxy-2-(1-methylethoxy)phenyl]-1H-imidazol-1-yl]carbonyl]-2-piperazinone] | – | – | – | greater than 20% | – | – | greater than 20% | greater than 20% | greater than 20% | –
– | < 1 nM | 830 nM | – | – | CC(C)(C)c1cc(NC(=O)Nc2ccc(-c3cn4c(n3)sc3cc(OCCN5CCOCC5)ccc34)cc2)no1 [Quizartinib] | – | – | – | greater than 20% | < 1 nM | greater than 20% | greater than 20% | – | – | –
– | – | – | – | – | O=C(CCCCCCNC(=O)c1cnc(N(c2ccccc2)c2ccccc2)nc1)NO [Rocilinostat, Ricolinostat] | greater than 20% | – | greater than 20% | greater than 20% | – | greater than 20% | greater than 20% | greater than 20% | greater than 20% | –
– | – | – | – | – | O=C(CCCCCCC(=O)Nc1ccccc1)NO [SAHA, suberanilohydroxamic acid] | greater than 20% | – | greater than 20% | greater than 20% | – | greater than 20% | greater than 20% | greater than 20% | greater than 20% | –
